Measured values reported in patent US12312359B2 (Vitae Pharmaceuticals, LLC, priority 2016, dated 2025).

Experiments:
[1] = target: T1, biotinylated wild-type menin and MLL-AF9 fusion protein (menin/MLL binding) (Homo sapiens, UniProt O00255); experiment: Assay 1: menin/MLL binding AlphaLISA assay, wild-type menin; settings: Table 30; column head does not say wild-type or mutated menin
T1 construct: made in house; host or cells: menin: E. coli; MLL-AF9-FLAG: HEK293 cells, used as cleared lysate
T1 sequence (O00255 1-610): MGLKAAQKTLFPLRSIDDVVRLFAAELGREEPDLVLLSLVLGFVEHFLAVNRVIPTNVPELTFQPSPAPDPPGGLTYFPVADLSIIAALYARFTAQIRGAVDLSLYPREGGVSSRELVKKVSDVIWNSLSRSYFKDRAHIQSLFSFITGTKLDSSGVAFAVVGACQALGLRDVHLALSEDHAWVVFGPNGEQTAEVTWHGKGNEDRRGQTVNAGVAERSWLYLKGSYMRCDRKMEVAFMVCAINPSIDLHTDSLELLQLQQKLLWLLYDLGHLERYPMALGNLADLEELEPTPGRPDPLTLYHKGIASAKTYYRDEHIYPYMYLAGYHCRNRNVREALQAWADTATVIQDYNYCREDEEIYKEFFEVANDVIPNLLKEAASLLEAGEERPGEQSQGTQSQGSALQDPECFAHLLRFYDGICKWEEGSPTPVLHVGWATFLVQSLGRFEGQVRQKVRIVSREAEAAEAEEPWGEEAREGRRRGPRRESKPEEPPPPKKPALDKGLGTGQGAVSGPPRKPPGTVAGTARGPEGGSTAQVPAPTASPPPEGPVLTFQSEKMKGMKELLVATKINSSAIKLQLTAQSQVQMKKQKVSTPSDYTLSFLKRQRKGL
Outline: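 Compound was preincubated 30 min at room temperature with biotinylated menin (5 nM) and MLL-AF9-FLAG lysate from HEK293 cells, pH 7.4 buffer with 5% DMSO and DTT. Bead-based Alpha signal after 60 min with streptavidin donor and anti-FLAG acceptor beads; four-parameter logistic fit gave IC50.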

[2] = system: human acute monocytic leukemia cell line MV-4-11; experiment: Assay 2: cell proliferation assay (ATP quantitation, CellTiter-Glo), MV-4-11; type: cell-based; settings: MV-4-11 cells
Outline: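 Read-out is CellTiter-Glo luminescence quantifying ATP. Compound exposure lasted 72 h at 37° C., 5% CO2, with 1.67×10^4 MV-4-11 cells per well in 10% FBS medium, alongside HL-60 toxicity-control cells.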

| SMILES | IC50 [1] [µM] | EC50 ([2]; Homo sapiens, MV4-11, 72 h) [µM] | EC50 ([2]; 72 h) [µM] |
| --- | --- | --- | --- |
| CCN(C(=O)c1cc(F)ccc1Oc1cncnc1N1CCC2(CCN(Cc3ccc4c(c3)[nH]c(=O)n4C)C2)C1)C(C)C (stereo not drawn) [Example 107, N-ethyl-5-fluoro-N-isopropyl-2-((4-(7-((1-methyl-2-oxo-2,3-dihydro-1H-benzo[d]imidazol-5-yl)methyl)-2,7-diazaspiro[4.4]nonan-2-yl)pyrimidin-5-yl)oxy)benzamide] | < 0.1 | < 0.1 |  |
| CC(C)N(C(=O)c1cc(F)ccc1Oc1cncnc1N1CCC2(CCC(N)(Cc3ccc(C#N)cc3)C2)C1)C(C)C (single isomer, unassigned) [Example 22A, 2-((4-(7-amino-7-(4-cyanobenzyl)-2-azaspiro[4.4]nonan-2-yl)pyrimidin-5-yl)oxy)-5-fluoro-N,N-diisopropylbenzamide] | < 0.1 | ≥ 1 |  |
| CC(C)N(C(=O)c1cc(F)ccc1Oc1cncnc1N1CC2(CCN(C[C@H]3CC[C@H](NS(C)(=O)=O)CC3)CC2)C1)C(C)C [Example 6A, 5-fluoro-N,N-diisopropyl-2-((4-(7-(((1r,4r)-4-(methylsulfonamido)cyclohexyl)methyl)-2,7-diazaspiro[3.5]nonan-2-yl)pyrimidin-5-yl)oxy)benzamide] | < 0.1 | < 0.1 |  |
| CC1(C)C(=O)Nc2cc(CN3CCC4(CCN(c5ncncc5Oc5ccc(F)cc5-c5ccc(C#N)cc5C5CC5)C4)C3)ccc21 (stereo not drawn) [Example 205, 2-cyclopropyl-2′-((4-(7-((3,3-dimethyl-2-oxoindolin-6-yl)methyl)-2,7-diazaspiro[4.4]nonan-2-yl)pyrimidin-5-yl)oxy)-5′-fluoro-[1,1′-biphenyl]-4-carbonitrile] | < 0.1 | < 0.1 |  |
| CC1(C)C(=O)Nc2cc(CN3CCC4(CCN(c5ncncc5Oc5ccc(F)cc5OCC(F)(F)F)C4)C3)ccc21 (stereo not drawn) [Example 182, 6-((7-(5-(4-fluoro-2-(2,2,2-trifluoroethoxy)phenoxy)pyrimidin-4-yl)-2,7-diazaspiro[4.4]nonan-2-yl)methyl)-3,3-dimethylindolin-2-one] | < 0.1 | 0.1 to 1 |  |
| CC(=O)N[C@H]1CC[C@@H](CN2CCC3(CCN(c4ncncc4Oc4ccc(F)cc4-c4ccc(C#N)cc4C4CC4)C3)C2)CC1 (stereo partly drawn) [Example 190A, N-((1s,4s)-4-((7-(5-((4′-cyano-2′-cyclopropyl-5-fluoro-[1,1′-biphenyl]-2-yl)oxy)pyrimidin-4-yl)-2,7-diazaspiro[4.4]nonan-2-yl)methyl)cyclohexyl) acetamide] | < 0.1 | 0.1 to 1 |  |
| CC(F)(F)c1ccccc1-c1cc(F)ccc1Oc1cncnc1N1CCC2(CCN(Cc3ccc4[nH]c(=O)[nH]c4c3)C2)C1 (stereo not drawn) [Example 213, 5-((7-(5-((2′-(1,1-difluoroethyl)-5-fluoro-[1,1′-biphenyl]-2-yl)oxy)pyrimidin-4-yl)-2,7-diazaspiro[4.4]nonan-2-yl)methyl)-1,3-dihydro-2H-benzo[d]imidazol-2-one] | < 0.1 | < 0.1 |  |
| CC(C)N(C)C(=O)c1cc(F)ccc1Oc1cncnc1N1CCC2(CCN(Cc3ccc4c(c3)NC(=O)C4(C)C#N)C2)C1 (stereo not drawn) [Example 125, 2-((4-(7-((3-cyano-3-methyl-2-oxoindolin-6-yl)methyl)-2,7-diazaspiro [4.4]nonan-2-yl)pyrimidin-5-yl)oxy)-5-fluoro-N-isopropyl-N-methylbenzamide] | < 0.1 | < 0.1 |  |
| CC(C)c1ncncc1-c1cc(F)ccc1Oc1cncnc1N1CC2(CC(NC3CCC(C)(C#N)CC3)C2)C1 (single isomer, unassigned) [Example 148A, 4-((2-(5-(4-fluoro-2-(4-isopropylpyrimidin-5-yl)phenoxy)pyrimidin-4-yl)-2-azaspiro[3.3]heptan-6-yl)amino)-1-methylcyclohexane carbonitrile] | < 0.1 | 0.1 to 1 |  |
| CC(C)N(C)C(=O)c1cc(F)ccc1Oc1cncnc1N1CCC2(CCN(Cc3ccc4c(c3)[nH]c(=O)n4C)C2)C1 (stereo not drawn) [Example 163, 5-fluoro-N-isopropyl-N-methyl-2-((4-(7-((1-methyl-2-oxo-2,3-dihydro-1H-benzo[d]imidazol-5-yl)methyl)-2,7-diazaspiro[4.4]nonan-2-yl)pyrimidin-5-yl)oxy)benzamide] | < 0.1 | 0.1 to 1 |  |
| Cn1c(-c2cc(F)ccc2Oc2cncnc2N2CC3(CCN(C[C@H]4CC[C@H](NC(=O)C(F)(F)F)CC4)CC3)C2)c(C2CC2)ccc1=O [Example 79, N-((1r,4r)-4-((2-(5-(2-(3-cyclopropyl-1-methyl-6-oxo-1,6-dihydropyridin-2-yl)-4-fluorophenoxy)pyrimidin-4-yl)-2,7-diazaspiro[3.5]nonan-7-yl)methyl)cyclohexyl)-2,2,2-trifluoroacetamide] | < 0.1 | < 0.1 |  |
| CC(C)n1nccc1-c1cc(F)ccc1Oc1cncnc1N1CC2(CC(NCc3ccc(C#N)cc3)CO2)C1 (stereo not drawn) [Example 233, 4-(((2-(5-(4-fluoro-2-(1-isopropyl-1H-pyrazol-5-yl)phenoxy)pyrimidin-4-yl)-5-oxa-2-azaspiro[3.4]octan-7-yl)amino)methyl) benzonitrile] | < 0.1 | 0.1 to 1 |  |
| CC(C)C1CCC(=O)N1c1cc(F)ccc1Oc1cncnc1N1CCC2(CCN(Cc3ccc4[nH]c(=O)[nH]c4c3)C2)C1 (stereo not drawn) [Example 218, 5-((7-(5-(4-fluoro-2-(2-isopropyl-5-oxopyrrolidin-1-yl)phenoxy)pyrimidin-4-yl)-2,7-diazaspiro[4.4]nonan-2-yl)methyl)-1,3-dihydro-2H-benzo[d]imidazol-2-one] | < 0.1 | ≥ 1 |  |
| CC(C)N(C(=O)c1cc(F)ccc1Oc1cncnc1N1CCC2(CCN(Cc3ccc4[nH]c(=O)[nH]c4c3)C2)C1)C(C)C (racemic) [Example 1, 5-fluoro-N,N-diisopropyl-2-((4-(7-((2-oxo-2,3-dihydro-1H-benzo[d]imidazol-5-yl)methyl)-2,7-diazaspiro[4.4]nonan-2-yl)pyrimidin-5-yl)oxy)benzamide] | < 0.1 | < 0.1 |  |

Results, then the compound that gave them:

| IC50 [1] [µM] | EC50 ([2]; Homo sapiens, MV4-11, 72 h) [µM] | EC50 ([2]; 72 h) [µM] | SMILES |
| --- | --- | --- | --- |
| < 0.1 | < 0.1 |  | Fc1ccc(Oc2cncnc2N2CC3(CN(CC4CCOCC4)C3)C2)c(-c2cccnc2C2CC2)c1 [Example 177, 2-(5-(2-(2-cyclopropylpyridin-3-yl)-4-fluorophenoxy)pyrimidin-4-yl)-6-((tetrahydro-2H-pyran-4-yl)methyl)-2,6-diazaspiro[3.3] heptane] |
| < 0.1 | 0.1 to 1 |  | CC(C)c1ncncc1-c1cc(F)ccc1Oc1cncnc1N1CC2(CC(NCc3ccccc3)CO2)C1 (stereo not drawn) [Example 159, N-benzyl-2-(5-(4-fluoro-2-(4-isopropylpyrimidin-5-yl)phenoxy)pyrimidin-4-yl)-5-oxa-2-azaspiro[3.4]octan-7-amine] |
| < 0.1 |  | 0.1 to 1 | CC(C)N(C)C(=O)c1cc(F)ccc1Oc1cncnc1N1CCC2(CCN(Cc3ccc(N4CCOC4=O)cc3)C2)C1 (stereo not drawn) [Example 62, 5-fluoro-N-isopropyl-N-methyl-2-((4-(7-(4-(2-oxooxazolidin-3-yl)benzyl)-2,7-diazaspiro[4.4]nonan-2-yl)pyrimidin-5-yl)oxy)benzamide] |
| < 0.1 | ≥ 1 |  | O=c1[nH]c2ccc(CN3CCC4(CCN(c5ncncc5Oc5ccc(F)cc5Cc5ccccc5)C4)C3)cc2[nH]1 (stereo not drawn) [Example 77] |
| < 0.1 | 0.1 to 1 |  | CCOC(=O)N(C)c1cc(F)ccc1Oc1cncnc1N1CCC2(CCN(Cc3ccc4[nH]c(=O)[nH]c4c3)C2)C1 (stereo not drawn) [Example 164, ethyl (5-fluoro-2-((4-(7-((2-oxo-2,3-dihydro-1H-benzo[d]imidazol-5-yl)methyl)-2,7-diazaspiro[4.4]nonan-2-yl)pyrimidin-5-yl)oxy)phenyl) (methyl)carbamate] |
| < 0.1 | 0.1 to 1 |  | CC(=O)N[C@H]1CC[C@H](CN2CCC3(CCN(c4ncncc4Oc4ccc(F)cc4-c4ccc(C#N)cc4C4CC4)C3)C2)CC1 (stereo partly drawn) [Example 188, N-((1r,4r)-4-((7-(5-((4′-cyano-2′-cyclopropyl-5-fluoro-[1,1′-biphenyl]-2-yl)oxy)pyrimidin-4-yl)-2,7-diazaspiro[4.4]nonan-2-yl)methyl)cyclohexyl) acetamide] |
| < 0.1 | < 0.1 |  | CC(C)c1ncncc1-c1cc(F)ccc1Oc1cncnc1N1CCC2(CCN(Cc3ccc4c(c3)[nH]c(=O)n4C)C2)C1 (stereo not drawn) [Example 150, 5-((7-(5-(4-fluoro-2-(4-isopropylpyrimidin-5-yl)phenoxy)pyrimidin-4-yl)-2,7-diazaspiro[4.4]nonan-2-yl)methyl)-1-methyl-1,3-dihydro-2H-benzo[d]imidazol-2-one] |
